Values quoted from earlier work in US20250144071A1, “METHOD FOR PRODUCING ELLAGIC ACID-CONTAINING COMPOSITION AND ELLAGIC ACID-CONTAINING COMPOSITION” (SUMITOMO CHEMICAL COMPANY, LIMITED, priority 2022, published 2025).

- Solubility of ellagic acid in water: about 20 μg/mL
SMILES: O=c1oc2c(O)c(O)cc3c(=O)oc4c(O)c(O)cc1c4c23 [ellagic acid]
